The values that follow come from paper PMC7682835, “A novel G protein-coupled receptor for starfish gonadotropic hormone, relaxin-like gonad-stimulating peptide” (PLoS ONE, 2020).

One assay has as its system starfish. As to conditions: injection of 1-MeAde compared with RGP; cited from earlier work. An excerpt:
(§1) Although RGP is the primary mediator of oocyte maturation and ovulation, the effect of RGP is indirect. RGP secreted by radial nerve cords induces ovarian follicle cells to produce 1-methyladenine (1-MeAde) as a maturation-inducing hor ...

Assay [1] concerns Patiria pectinifera ovarian follicle cells. As to conditions: isolated follicle cells cultured with PpeRGP, cited from earlier work. An excerpt: However, the RGP receptor (RGPR) remains to be identified in s ...
For assay [2], the system named is PpeRGPR in P. pectinifera ovarian follicle cells. The assay is described as follows: Competitive binding assay, 125I-PpeRGP versus unlabeled RGP, follicle cell homogenates. More on the design: species or system Patiria pectinifera. As to conditions: 2 h at 20°C, four separate assays; for Effect of unlabeled peptide on 125I-PpeRGP binding (result in words): follicle cell homogenates (25 μg of protein), 125I-PpeRGP about 100,000 cpm, final concentration 1.1 pM, total volume 0.5 ml, four animals. How it is done:
Follicle cells were homogenized using a Teflon homogenizer in 25 mM Tris-HCl (pH 7.4) containing 10 mM MgCl2. Protein concentrations were measured using a Bio-Rad protein assay kit (Bio-Rad Laboratories, Hercules, CA, USA).
The radioiodination of PpeRGP with Na^125I (carrier free; GE Healthcare, Buckinghamshire, UK) was carried out at room temperature in accordance with the modified lactoperoxidase method, as described previously. The specific activity of radioiodinated PpeRGP (^125I-PpeRGP) was estimated to be 150 μCi/μg.
The specificity of RGP binding was examined using whole homogenates of follicle cells. Preparations were adjusted to yield a protein concentration of 10 mg/ml with the homogenizing medium plus 0.1% (wt/vol) BSA, and stored at -80°C until use. The binding assay was performed using competition experiments between labeled PpeRGP and unlabeled PpeRGP or AamRGP, as described previously. Data were obtained from four separate assays using follicle cells from ovaries of four different animals.
Fig 3 Competitive inhibition curves of ^125I-PpeRGP binding to Patiria pectinifera ovarian follicle cells in the presence of unlabeled PpeRGP or AamRGP. P. pectinifera ovarian follicle cell homogenates (25 μg of protein) were incubated for 2 h at 20°C in assay buffer containing ^125I-PpeRGP (about 100,000 cpm; 2.087 pg/[…]; total volume 0.5 ml, final concentration 1.1 pM) in the presence of serially diluted unlabeled PpeRGP (●) or AamRGP (○). Specific binding was obtained by subtracting nonspecific binding from total binding. Data were obtained from four separate assays using follicle cells from ovaries of four different animals.

Another assay concerns P. pectinifera ovaries. As to conditions: approximately; in vitro spawning; read-out: Median effective concentration of in vitro spawning; cited from earlier work. From the text:
Since cDNA encoding the PpeRGPR was cloned from P. pectinifera follicle cells (Fig 1), PpeRGPR should be expressed on follicle cell surface. […] In contrast to PpeRGP, AamRGP had no effects on binding to P. pectinifera follicle cells (Fig 3), as well as 1-MeAde and cAMP production (Fig 4B) or calcium signals in PpeRGPR-expressing Sf9 cells (Fig 2C). […] Based on 3D structural models, P^A17 of PpeRGP and R^A18 of AamRGP are located near their respective B-cha ...

Assay [3] concerns ovarian fragments of P. pectinifera. As to conditions: synthetic PpeRGP, within 30 min of incubation; cited from earlier work.
Description: as §1

The subject of assay [4] is males and females of P. pectinifera. As to conditions: injection of synthetic PpeRGP into males and females with fully-grown testes and ovaries; cited from earlier work.
Description: as §1

The subject of another assay is PpeRGPR. In words: Intracellular calcium mobilization (Fluo-8) in Sf9 cells transfected with Gαq16-fused PpeRGPR. The assay is classed as cell-based, Patiria pectinifera. As to conditions: for Effect on calcium signaling (result in words): Fluo-8, 490/514 nm. How it is done:
Functional characterization of PpeRGPR was performed using Sf9 cells and baculovirus-based expression methods, as previously reported. The open reading frame (ORF) of human Gαq16 protein (OriGene, Rockville, MD, USA), which couples with GPCRs and triggers intracellular calcium mobilization upon binding of a specific ligand [33] was subcloned into the XbaI site of the pFastbacI plasmid (Invitrogen, Waltham, MA, USA). PpeRGPR was then cloned into the NotI/XbaI site of the Gαq16-ligated pFastbacI plasmids. Transformation of competent cells with the PpeRGPR-Gαq16-pFastbacI plasmid and the resulting bacmid isolation was performed according to the manufacturer’s instructions for the Bac-to-Bac system (Thermo Fisher Scientific, Waltham, MA, USA).
Sf9 cells (Thermo Fisher Scientific) were grown in Sf900 II (Thermo Fisher Scientific) containing 10% FBS (Sigma-Aldrich) at 28°C. PpeRGPR-Gαq16-recombinant baculoviruses were prepared from Sf9 cells transfected with the above bacmids using Cellfectin II (Thermo Fisher Scientific), titrated, isolated, and transiently transfected into Sf9 cells, as previously described. Sf9 cells were plated at 1.2×10^5 cells/well (on a 96-well plate) or 2.4×10^5 cells (on a glass bottom dish) prior to transfection. Forty-eight hours after transfection, Sf9 cells were loaded for 30 min with 2.5 μM of Fluo-8 AM (AAT Bioquest, Sunnyvale, CA, USA) diluted in loading buffer [HBSS supplemented with 1.25 mM probenecid and 0.04% (wt/vol) pluronic F-127] [32]. Cell membrane expression of PpeRGPR-fused human Gαq16 was confirmed by immunostaining using the anti-Gαq16 antibody (OriGene, TA318890) in comparison with non-transfected Sf9 cells (wild type). Dose-dependent responses to PpeRGP or AamRGP were measured using a FlexStation II-automated apparatus (Molecular Devices, San Jose, CA, USA) at the excitation/emission wavelengths of 490/514 nm. Calcium accumulation data were analyzed using Prism v6 (GraphPad Software, San Diego, CA, USA) to fit to a sigmoidal concentration-response curve, as previously described. The dose-response curve was statistically evaluated by analysis of variance. Significant activation of PpeRPGR by PpeRGP compared with AamRGP at each concentration was also examined by Student t test.
Fig 2 Intracellular calcium mobilization in Sf9 cells. (A, B) Sf9 cells were transfected with Gαq16- fused PpeRGPR-recombinant baculovirus (A) and non-transfected Sf9 cells were used as wild type controls (B). Expression of PpeRGPR in Sf9 cells was examined by immunostaining using an anti-Gαq16 antibody. Immunoreactivity was observed using a fluorescence microscope after incubation with an Alexa Fluor 488-conjugated secondary antibody. […] Scale bars represent 50 μm. […] Each dose-response curve was statistically evaluated by analysis of variance. […]

Assay [5] relates to membrane preparation of ovarian follicle cells of P. pectinifera. As to conditions: cited from earlier work.
Assay [6] has as its system Patiria pectinifera ovarian follicle cells. The assay is described as follows: 1-MeAde production by follicle cells. It is filed as cell-based. As to conditions: follicle cells (ten million in 1 ml ASW), 2 h at 20°C; 1-MeAde released into medium by biological assay; three independent samples. How it is done: (§2) Ten million follicle cells were incubated for 2 h at 20°C in 1 ml of ASW in the presence of PpeRGP or AamRGP, with occasional shaking. The cell suspension was then centrifuged at 1,000 g for 1 min and quickly frozen in liquid nitrogen. Supernatants were analyzed for the amount of 1-MeAde released from follicle cells. The concentration of 1-MeAde was determined by a method previously described, using authentic 1-MeAde as the standard reference. The frozen follicle cells were analyzed for the amount of intracellular cAMP using a BIOTRAK cAMP EIA system (GE Healthcare). The mean was determined from three separate assays using three different animals and standard error of the mean (SEM).
(§3) Fig 4 Effect of RGP on 1-MeAde and cAMP production in Patiria pectinifera ovarian follicle cells. (A) Amino acid alignments of A- and B-chains in P. pectinifera (PpeRGP) and Asterias amurensis (AamRGP). To illustrate the conserved features, the amino acid types are color coded according to their properties, with basic residues in blue (Arg, Lys and His), acidic residues in red (Glu and Asp), hydrophobic residues in green (Ala, Val, Ile, Phe, Trp, Tyr, Pro and Met), hydrophilic in black (Ser, Thr, Asn and Gln) and glycine in light blue. The cysteine residues are highlighted in yellow and disulfide bonds are shown with solid dark red lines. […] Intracellular cAMP content was determined by EIA. […]

For assay [7] the test system is unchanged. The assay is described as follows: Intracellular cAMP production in follicle cells. The assay is classed as cell-based. As to conditions: follicle cells (ten million in 1 ml ASW), 2 h at 20°C; intracellular cAMP by EIA; three independent samples. How it is done:
as §2, §3
In general terms: Changes in cAMP serve as a functional read-out for many G protein-coupled receptors.

The mark [8] stands for this setting: Sf9 cells with Gαq16-fused PpeRGPR, three to seven independent samples.

For `Cn1cnc2ncnc-2c1N` [1-MeAde, 1-methyladenine], the “Interval preceding the discharge of gametes after injection (result in words)” value with starfish is recorded as “almost equal to those found after injection of RGP”.

By Kd is commonly meant a measure of binding affinity in units of concentration. Regarding “relaxin-like gonad-stimulating peptide of Patiria pectinifera [PpeRGP]”, the “1-MeAde production in isolated follicle cells (result in words)” value in [1] (coinciding with cAMP increase) is “increase”. Besides, in [1], the “cAMP production in isolated follicle cells (result in words)” value was “dose-related increase”. For the same molecule, the Kd in assay [2] (Scatchard plot analysis, follicle cell homogenates, 125I-PpeRGP, read-out: Dissociation constant (Kd)) is around 0.67 nM. Moreover, the “Effect of unlabeled peptide on 125I-PpeRGP binding (result in words)” value in assay [2] was “decreased in a dose-dependent manner”. In addition, the EC50 is 1 to 2 nM in the assay with P. pectinifera ovaries and 11.1 nM in the assay with PpeRGPR (Sf9 cells transfected with Gαq16-fused PpeRGPR baculovirus, 48 h, Fluo-8 AM 2.5 μM, FlexStation II, 490/514 nm, sigmoidal fit, three to seven independent samples, read-out: EC50, calcium signaling). In addition, the “Induction of oocyte maturation and ovulation (result in words)” value in assay [3] is “induced oocyte maturation and ovulation”. Besides, the “Spawning behavior and spawning after injection (result in words)” value in assay [4] was “spawning behavior and subsequent spawning were observed”. The “Concentration above which calcium signaling is significantly increased” value in the assay on PpeRGPR (Sf9 cells with Gαq16-fused PpeRGPR, Fluo-8) is “above 1 nM”. Further, the “Effect on calcium signaling (result in words)” value with PpeRGPR (setting [8]) is listed as “significantly increased calcium signaling at concentrations above 1 nM in a dose-dependent manner”. Moreover, the “Binding to follicle cell membrane preparation (result in words)” value in [5] was “binds specifically”.

For “relaxin-like gonad-stimulating peptide of Asterias amurensis [AamRGP, reference compound]”, in [2], the “Effect of unlabeled peptide on 125I-PpeRGP binding (result in words)” value is “no effect on ^125I-PpeRGP binding”. The “Effect on 1-MeAde production (result in words)” value in assay [6] was “no effects”. In addition, the “Effect on calcium signaling (result in words)” value with PpeRGPR (setting [8]) is listed as “no effect on calcium signaling”. The “Effect on cAMP production (result in words)” value in [7] is given as “no effects”.
